Experimental data taken from patent publication US5288720A, “Angiotensin II receptor blocking 2,3,6 substituted quinazolinones” (American Cyanamid Company, priority 1993, dated 1994).

Tested on: ANGIOTENSIN II VASOPRESSOR RESPONSE
Experiment: AII Challenge: blockade of angiotensin II vasopressor response in conscious SHR
Assay type: in vivo, rat (Conscious Male Okamoto-Aoki SHR)
Conditions: SHR n=2
In short: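 Percent blockade is derived from the systolic pressure rise in mmHg, taking each rat's own predose response as 100%. Rats were conscious male Okamoto-Aoki SHR, 16-20 weeks, ~330 g, with aortic and caval cannulas under local procaine. Compound went i.v., i.p. or orally, then angiotensin II challenges (0.05 and 0.1 ug/kg i.v.) at 30-300 min.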

[1] = 3 mg/kg i.v., AII 0.05 mcg/kg IV, 30 min post dose
[2] = 3 mg/kg i.v., AII 0.05 mcg/kg IV, 60 min post dose
[3] = 3 mg/kg i.v., AII 0.05 mcg/kg IV, 90 min post dose
[4] = 3 mg/kg i.v., AII 0.05 mcg/kg IV, 120 min post dose
[5] = 3 mg/kg i.v., AII 0.05 mcg/kg IV, 180 min post dose
[6] = 3 mg/kg i.v., AII 0.05 mcg/kg IV, 240 min post dose
[7] = 3 mg/kg i.v., AII 0.05 mcg/kg IV, 300 min post dose
[8] = 3 mg/kg i.v., AII 0.1 mcg/kg IV, 30 min post dose
[9] = 3 mg/kg i.v., AII 0.1 mcg/kg IV, 60 min post dose
[10] = 3 mg/kg i.v., AII 0.1 mcg/kg IV, 90 min post dose
[11] = 3 mg/kg i.v., AII 0.1 mcg/kg IV, 120 min post dose
[12] = 3 mg/kg i.v., AII 0.1 mcg/kg IV, 180 min post dose
[13] = 3 mg/kg i.v., AII 0.1 mcg/kg IV, 240 min post dose
[14] = 3 mg/kg i.v., AII 0.1 mcg/kg IV, 300 min post dose
[15] = 3 mg/kg p.o., AII 0.05 mcg/kg IV, 30 min post dose
[16] = 3 mg/kg p.o., AII 0.05 mcg/kg IV, 60 min post dose
[17] = 3 mg/kg p.o., AII 0.05 mcg/kg IV, 90 min post dose
[18] = 3 mg/kg p.o., AII 0.05 mcg/kg IV, 120 min post dose
[19] = 3 mg/kg p.o., AII 0.05 mcg/kg IV, 180 min post dose
[20] = 3 mg/kg p.o., AII 0.1 mcg/kg IV, 30 min post dose
[21] = 3 mg/kg p.o., AII 0.1 mcg/kg IV, 60 min post dose
[22] = 3 mg/kg p.o., AII 0.1 mcg/kg IV, 90 min post dose
[23] = 3 mg/kg p.o., AII 0.1 mcg/kg IV, 120 min post dose
[24] = 3 mg/kg p.o., AII 0.1 mcg/kg IV, 180 min post dose
[25] = 10 mg/kg p.o., AII 0.05 mcg/kg IV, 30 min post dose
[26] = 10 mg/kg p.o., AII 0.05 mcg/kg IV, 60 min post dose
[27] = 10 mg/kg p.o., AII 0.05 mcg/kg IV, 90 min post dose
[28] = 10 mg/kg p.o., AII 0.05 mcg/kg IV, 120 min post dose
[29] = 10 mg/kg p.o., AII 0.05 mcg/kg IV, 180 min post dose
[30] = 10 mg/kg p.o., AII 0.05 mcg/kg IV, 240 min post dose
[31] = 10 mg/kg p.o., AII 0.05 mcg/kg IV, 300 min post dose
[32] = 10 mg/kg p.o., AII 0.1 mcg/kg IV, 30 min post dose
[33] = 10 mg/kg p.o., AII 0.1 mcg/kg IV, 60 min post dose
[34] = 10 mg/kg p.o., AII 0.1 mcg/kg IV, 90 min post dose
[35] = 10 mg/kg p.o., AII 0.1 mcg/kg IV, 120 min post dose
[36] = 10 mg/kg p.o., AII 0.1 mcg/kg IV, 180 min post dose
[37] = 10 mg/kg p.o., AII 0.1 mcg/kg IV, 240 min post dose
[38] = 10 mg/kg p.o., AII 0.1 mcg/kg IV, 300 min post dose

## CCCCc1nc2ccc(C(O)C3CCCN(C)C3=O)cc2c(=O)n1Cc1ccc(-c2ccccc2-c2nn[nH]n2)cc1 (single isomer, unassigned; isomer 1) [Example 37, 2-Butyl-6-hydroxy(1-methyl-2-oxo-3-piperidinyl)methyl]-3-[[2'-(1H-tetrazol-5-yl)[1,1'-biphenyl]-4-yl]methyl]-4(3H)-quinazolinone isomer 1]
[1]
  % Inhibition of AII vasopressor response: 100%
  Average Change (systolic blood pressure response to AII): 0 mmHg
[2]
  % Inhibition of AII vasopressor response: 100%
  Average Change (systolic blood pressure response to AII): 0 mmHg
[3]
  % Inhibition of AII vasopressor response: 100%
  Average Change (systolic blood pressure response to AII): 0 mmHg
[4]
  % Inhibition of AII vasopressor response: 91%
  Average Change (systolic blood pressure response to AII): 2.5 mmHg
[5]
  % Inhibition of AII vasopressor response: 55%
  Average Change (systolic blood pressure response to AII): 12.5 mmHg
[6]
  % Inhibition of AII vasopressor response: 64%
  Average Change (systolic blood pressure response to AII): 10 mmHg
[7]
  % Inhibition of AII vasopressor response: 36%
  Average Change (systolic blood pressure response to AII): 17.5 mmHg
[8]
  % Inhibition of AII vasopressor response: 92%
  Average Change (systolic blood pressure response to AII): 2.5 mmHg
[9]
  % Inhibition of AII vasopressor response: 92%
  Average Change (systolic blood pressure response to AII): 2.5 mmHg
[10]
  % Inhibition of AII vasopressor response: 85%
  Average Change (systolic blood pressure response to AII): 5 mmHg
[11]
  % Inhibition of AII vasopressor response: 85%
  Average Change (systolic blood pressure response to AII): 5 mmHg
[12]
  % Inhibition of AII vasopressor response: 66%
  Average Change (systolic blood pressure response to AII): 11 mmHg
[13]
  % Inhibition of AII vasopressor response: 23%
  Average Change (systolic blood pressure response to AII): 25 mmHg
[14]
  % Inhibition of AII vasopressor response: 0%
  Average Change (systolic blood pressure response to AII): 32.5 mmHg
[15]
  % Inhibition of AII vasopressor response: 53%
  Average Change (systolic blood pressure response to AII): 19 mmHg
[16]
  % Inhibition of AII vasopressor response: 29%
  Average Change (systolic blood pressure response to AII): 28.5 mmHg
[17]
  % Inhibition of AII vasopressor response: 29%
  Average Change (systolic blood pressure response to AII): 28.5 mmHg
[18]
  % Inhibition of AII vasopressor response: 13%
  Average Change (systolic blood pressure response to AII): 35 mmHg
[19]
  % Inhibition of AII vasopressor response: 0%
  Average Change (systolic blood pressure response to AII): 40 mmHg
[20]
  % Inhibition of AII vasopressor response: -6%
  Average Change (systolic blood pressure response to AII): 47.5 mmHg
[21]
  % Inhibition of AII vasopressor response: 30%
  Average Change (systolic blood pressure response to AII): 31.5 mmHg
[22]
  % Inhibition of AII vasopressor response: 11%
  Average Change (systolic blood pressure response to AII): 40 mmHg
[23]
  % Inhibition of AII vasopressor response: 22%
  Average Change (systolic blood pressure response to AII): 35 mmHg
[24]
  % Inhibition of AII vasopressor response: 22%
  Average Change (systolic blood pressure response to AII): 35 mmHg
[25]
  % Inhibition of AII vasopressor response: 67%
  Average Change (systolic blood pressure response to AII): 17.5 mmHg
[26]
  % Inhibition of AII vasopressor response: 65%
  Average Change (systolic blood pressure response to AII): 18.5 mmHg
[27]
  % Inhibition of AII vasopressor response: 62%
  Average Change (systolic blood pressure response to AII): 20 mmHg
[28]
  % Inhibition of AII vasopressor response: 67%
  Average Change (systolic blood pressure response to AII): 17.5 mmHg
[29]
  % Inhibition of AII vasopressor response: 57%
  Average Change (systolic blood pressure response to AII): 22.5 mmHg
[30]
  % Inhibition of AII vasopressor response: 43%
  Average Change (systolic blood pressure response to AII): 30 mmHg
[31]
  % Inhibition of AII vasopressor response: 52%
  Average Change (systolic blood pressure response to AII): 25 mmHg
[32]
  % Inhibition of AII vasopressor response: 40%
  Average Change (systolic blood pressure response to AII): 30 mmHg
[33]
  % Inhibition of AII vasopressor response: 26%
  Average Change (systolic blood pressure response to AII): 37 mmHg
[34]
  % Inhibition of AII vasopressor response: 40%
  Average Change (systolic blood pressure response to AII): 30 mmHg
[35]
  % Inhibition of AII vasopressor response: 55%
  Average Change (systolic blood pressure response to AII): 22.5 mmHg
[36]
  % Inhibition of AII vasopressor response: 35%
  Average Change (systolic blood pressure response to AII): 32.5 mmHg
[37]
  % Inhibition of AII vasopressor response: 40%
  Average Change (systolic blood pressure response to AII): 30 mmHg
[38]
  % Inhibition of AII vasopressor response: 35%
  Average Change (systolic blood pressure response to AII): 32.5 mmHg
